Data on four compounds can be found in PMC6334511, “Biochemical characterization of the minimal domains of an iterative eukaryotic polyketide synthase” (The Febs Journal, 2018).

The experiment has as its system ApPKS KS-AT didomain. Description: alpha-ketoglutarate dehydrogenase coupled NADH fluorescence. The format is biochemical, Anas platyrhynchos. The settings on record: transacylation to ACP1 (AT site), corrected for ACP1 self-acylation; 50 mM sodium phosphate pH 7.6, 10% glycerol, 1 mM TCEP, 1 mM EDTA; read-out: Km (apparent).

Take `CC(C)(COP(=O)(O)OP(=O)(O)OC[C@H]1O[C@@H](n2cnc3c(N)ncnc32)[C@H](O)[C@@H]1OP(=O)(O)O)[C@@H](O)C(=O)NCCC(=O)NCCSC(=O)CC(=O)O` [malonyl-CoA]: the Km was 7.4 ± 0.97 µM.

As to `CC(C(=O)O)C(=O)SCCNC(=O)CCNC(=O)[C@H](O)C(C)(C)COP(=O)(O)OP(=O)(O)OC[C@H]1O[C@@H](n2cnc3c(N)ncnc32)[C@H](O)[C@@H]1OP(=O)(O)O` (stereo partly shown) [methylmalonyl-CoA], the Michaelis constant (Km) was 245 ± 37.7 µM.

`CCC(=O)SCCNC(=O)CCNC(=O)[C@H](O)C(C)(C)COP(=O)(O)OP(=O)(O)OC[C@H]1O[C@@H](n2cnc3c(N)ncnc32)[C@H](O)[C@@H]1OP(=O)(O)O` [propionyl-CoA]: the Km was found to be 12.2 ± 3.03 µM.

Take `CC(=O)SCCNC(=O)CCNC(=O)[C@H](O)C(C)(C)COP(=O)(O)OP(=O)(O)OC[C@H]1O[C@@H](n2cnc3c(N)ncnc32)[C@H](O)[C@@H]1OP(=O)(O)O` [acetyl-CoA]: the Km is 8.97 ± 1.53 µM.

A word on the Km: it is the concentration of substrate that gives half-maximal velocity.
